The source of these data is publication PMC4426677, “Tubulin structure-based drug design for the development of novel 4β-sulfur-substituted podophyllum tubulin inhibitors with anti-tumor activity” (Scientific Reports, 2015).

Data set [1] in a line: MTT cytotoxicity assay, normal human cells HL-7720. The format is cell-based. The following applies: drug exposure 48 h, mean ± SD (n = 3), read-out: Cytotoxic activity (IC50) HL-7720. The method, then: (§1) Cytotoxicity assays were performed on the human gastric carcinoma cell line BGC-823, the human lung adenocarcinoma cell line A549, the human hepatocellular liver carcinoma HepG2, and the normal human hepatic immortal cell line HL-7702. Cells (3500–13,000) were seeded into 96-well microtest plates in 100 μL of culture medium per well (Falcon, CA). The cells were treated in triplicate with a gradient concentration of test compounds and incubated at 37 °C in RPMI-1640 with 100 mg L^−1 kanamycin and 10% (v/v) fetal bovine serum in a humidified atmosphere containing 5% CO2 for 48 h. The plating efficiencies of the untreated cells varied between experiments with values ranging from 14 to 31% for the HL-7702 cells. For all cell lines, microculture tetrazolium [3-(4, 5-dimethylthiazol-2-yl)−2, 5-diphenyltetrazolium bromide, MTT; Sigma, St. Louis, MO] assay was performed to measure cytotoxic effects. […] The initial seeding densities varied among the cell lines to ensure a final absorbance reading in control (untreated) cultures within the range of 0.6–0.8 A492 units. […] Each test was performed in triplicate, and the absorbance readings between the triplicates varied by no more than 5%.
(§2) Data presented as means ± SD. Statistical analyses were performed by the analysis of variance (ANOVA). All statistical analyses were performed using Origin version 8.0 ([…], OriginLab Corp., Northampton, MA, USA). Sigmoidal dose responses and non-linear regression analyses were undertaken to identify half-maximal concentrations for each of the drugs. To evaluate differences in IC50 concentrations, analysis of variance combined with Tukey’s multiple range test was used.
(Tetrazolium assays rely on reduction of a dye to a coloured formazan, in cell work by metabolically active cells.)

The subject of data set [2] is human lung adenocarcinoma cell line A549. Briefly: MTT cytotoxicity assay, A549. The class given is cell-based. The following applies: read-out: Cytotoxic activity (IC50) A549. The method, then: as §1, §2
Data set [3] concerns human gastric carcinoma cell line BGC-823. Briefly: MTT cytotoxicity assay, BGC-823. The class given is cell-based. The following applies: read-out: Cytotoxic activity (IC50) BGC-823. The method, then:
as §1, §2

For data set [4], the system named is A549 cells. Briefly: Immunofluorescence staining of tubulin and nuclei. The class given is cell-based, human. Particulars: 1 μM, 12 hours. How it is done: (§3) The degree of tubulin polymerization was evaluated through pellet mass formation in centrifugation assays in the presence of stoichiometric and semi-stoichiometric concentrations of each lignan.
Cells were fixed with 4% paraformaldehyde in phospate buffered saline (PBS), permeabilized with 0.5% Triton X-100 in PBS, and then tubulin was immunostained with monoclonal antibody to tubulin (B5-1-2, Sigma) followed by fluorescein 5-isothiocyanate (FITC) conjugated secondary antibody. Nuclei were labeled with 4′, 6-diamidino-2-phenylindole (DAPI). Fluorescence labeled tubulin and nuclei were observed using a Zeiss Axioplan fluorescence microscope, and images were captured by a XL16 Excel cooled digital camera controlled by the Dage Exponent software (Dage-MTI). Final images were prepared using Adobe Photoshop. The cells were then processed for immunofluoscence staining and confocal microscopy (× 600).

The test system of data set [5] is human hepatocellular liver carcinoma HepG2. The data set is described as follows: MTT cytotoxicity assay, HepG2. The class given is cell-based. The following applies: read-out: Cytotoxic activity (IC50) HepG2. How it is done:
as §1, §2

The test system of another data set is calf brain tubulin. Briefly: Tubulin assembly inhibition, centrifugation assay. The format is biochemical. Particulars: 30 min at 37 °C, read-out: GI50, inhibition of tubulin polymerization. The method, then: as §3
Purification of calf brain tubulin and chemicals were followed as previously described by Andreu[20]. Ligands were dissolved in DMSO at 20 mM and kept at −80 °C. Work solutions were done in DMSO and kept at −20 °C. The 50% inhibitory ligand concentration of tubulin assembly was determined with a centrifugation assay. Tubulin was equilibrated prior to use in 3.4 M glycerol, 1 mM EGTA, 0.1 mM GTP, pH 7.0, buffer through a 25 cm × 0.9 cm Sephadex G-25 column. Aggregates were removed by a centrifugation at 90000 g × 10 min in a TLA 120 rotor at 4 °C in an Optima TLX centrifuge. Tubulin concentration was determined as described by Andreu[21]. Tubulin was kept at 4 °C, and 0.9 mM GTP and 6 mM MgCl2 were added to the sample. The solution was distributed in 200 μL polycarbonate tubes for the TL100 rotor. […] Microtubules were separated from unassembled tubulin by a centrifugation at 90000 g × 10 min in a TLA100 rotor at 37 °C in an Optima TLX centrifuge. […] The 50% inhibitory ligand concentration of tubulin assembly was determined with a centrifugation assay that measured the decrease in the concentrations of microtubules assembled in the presence of different concentrations of the compound.

In the next data set the target is tubulin. Briefly: Surface plasmon resonance binding to immobilized tubulin. The following applies: 1:1 Langmuir model, HBS-T buffer pH 7.4; read-out: equilibrium dissociation constant (KD value), SPR. How it is done: as §3
Based on the surface plasmon resonance (SPR) technology, the binding affinity of compounds to tubulin was determined with the ProteOn^TM XPR36 Protein Interaction Array System (Bio-Rad, Hercules, CA). For this purpose, tubulin was dissolved in 10 mM sodium acetate buffer (pH 3.5) and immobilized to the ProteOn^TM GLH sensor chip with the ProteOn^TM amine coupling kit. The final immobilization level was 8000 RU (Response unit). […] Data were analyzed with the ProteOn^TM Manager software, fitted to the 1:1 Langmuir model.
On the technique in general: Surface plasmon resonance follows binding to a sensor surface in real time, without labels.

In data set [6] the test system is A549 cells. Briefly: Cell cycle analysis (PI staining, flow cytometry). The class given is cell-based, human. Particulars: for G2/M phase arrest ratio: after 24 h incubation until end of incubation. The method, then:
Tubulin inhibitors block cell cycle progression in mitosis at the G2/M phase, and a prolonged mitotic arrest triggers various apoptotic pathways. […] After 24 h incubations, the G2/M phase arrest ratio remained at around 80% and 90% until the end of the incubation.
Cell cycle arrest detection in A549 cells using propidium iodide (PI) double staining treatment with different concentrations of 4-TG-PTOX (i.e., 0.1, 1, and 5 μM) for 6, 12, 24, 48 h, respectively. The A549 cell line was used for cell cycle analysis. Cells were treated in triplicate with a gradient concentration of test compounds and incubated at 37 °C in RPMI-1640 with 100 mg L^−1 kanamycin and 10% (v/v) fetal bovine serum in a humidified atmosphere containing 5% CO2 for 48 h. Untreated and drug-treated cells were centrifuged and fixed overnight in 70% ethanol at 4 °C. They were then washed three times with PBS, incubated for 1 h with 1 mg/ mL RNase A and […] propidium iodide at room temperature, and analyzed with a FACSCalibur flow cytometer (BD, USA).
For orientation: Flow cytometry measures light scatter and fluorescence of single cells or particles in a stream.

The test system of data set [7] is A549 cells. Briefly: Cell apoptosis analysis (annexin V/PI flow cytometry). The format is cell-based, human. The following applies: for maximum level of apoptosis: 48 h. How it is done: After 48 h of treatment with 4-TG-PTOX, the maximum levels of apoptosis reached were 63% and 67% at 4-TG-PTOX concentrations of 1 and 5 µM, respectively.
Cell apoptosis-inducing detection in A549 cells treatment with different concentrations of 4-TG-PTOX (i.e., 0.1, 1, and 5 μM) for 6, 12, 24, 48 h, respectively. In the early stages of apoptosis, phosphatidylserine (PS) was translocated from the inside of the cell membrane to the outside. Annexin V, a calcium dependent phospholipid-binding protein associated with a high affinity for phosphatidylserine, was used to detect early apoptotic cells. Propidine Iodide (PI) was a red fluorescent dye and stained cells that had lost membrane integrity. So, cells stained with FITC-annexin V and PI were discriminated necrotic cells (Q1, Annexin-/PI +), late apoptotic cells (Q2, Annexin +/PI+), intact cells (Q3, Annexin -/PI -) and early apoptotic cells (Q4, Annexin+/PI -).

Where [8] appears, read: A549, MTT, drug exposure 48 h, mean ± SD (n = 3).
Where [9] appears, read: BGC-823, MTT, drug exposure 48 h, mean ± SD (n = 3).
Setting [10] is: HepG2, MTT, drug exposure 48 h, mean ± SD (n = 3).

The structures appear in SMILES notation. Entries after “also recorded” stand apart in the source; their conditions may differ. Read-outs that look alike come from different tables or passages of the source.

Turning to `COc1cc2c(c(OC)c1OC)-c1ccc(OC)c(=O)cc1[C@@H](NC(C)=O)CC2` [Colchicines, colchicine], the IC50 at 48 h in data set [1] was found to be 6.42 ± 1.03 µM. For the same molecule, the IC50 turned out to be 12.2 ± 0.76 µM in [2] (setting [8]), 12.2 ± 1.26 µM in data set [3] (setting [9]) and 13.2 ± 0.88 µM in data set [5] (setting [10]). Besides, the “effect on cellular microtubules (immunofluorescence)” value (from here on “effect on cellular microtubules”) in the data set on A549 cells [4] is on record as “inhibited tubulin polymerization”.
In the case of `COc1cc(C2c3cc4c(cc3C(Sc3ncnc5nc[nH]c35)C3COC(=O)C23)OCO4)cc(OC)c1OC` (centres unmarked) [Compound 4-MP-PTOX], the GI50 in the data set with calf brain tubulin is under 2 µM. For the same molecule, in data set [1], the IC50 at 48 h came to 11.3 ± 0.57 µM. Besides, the IC50 in [2] (setting [8]) stood at 1.12 ± 0.35 µM; in [3] (setting [9]), 8.72 ± 3.15 µM; in data set [5] (setting [10]) it was 1.14 ± 1.07 µM. Moreover, the Kd at tubulin worked out at 8.7 µM. Also, in the data set on A549 cells [4], the “effect on cellular microtubules” value is on record as “anti-microtubule activity was observed; also recorded: inhibited tubulin polymerization”. In addition, the “effect on nucleus (DAPI)” value in the data set on A549 cells [4] is “not damaged”.
As for `COc1cc(C2c3cc4c(cc3C(Sc3nc(N)nc5nc[nH]c35)C3COC(=O)C23)OCO4)cc(OC)c1OC` (centres unmarked) [Compound 4-TG-PTOX], the GI50 with calf brain tubulin was under 1 µM. Also, in data set [1], the IC50 at 48 h was determined as 13.5 ± 2.41 µM. Also, the figures for the half-maximal inhibitory concentration (IC50) in data set [2] (setting [8]), in data set [3] (setting [9]) and in [5] (setting [10]) were 0.57 ± 0.92 µM, 4.4 ± 1.55 µM and 0.3 ± 0.34 µM, respectively. Also, the G2/M phase arrest result with A549 cells [6] (A549, 0.1 μM) was “arrested after 12 h and strongly arrested after 24 and 48 h”. Besides, the “G2/M phase arrest ratio” value was “around 80%” with A549 cells [6] (A549, 1 μM) and about 90% with A549 cells [6] (A549, 5 μM). Also, the Kd on tubulin was determined as 6.2 µM. In addition, the “effect on cellular microtubules” value in the data set with A549 cells [4] is given as “anti-microtubule activity was observed; also recorded: inhibited tubulin polymerization”. Also, the “effect on nucleus (DAPI)” value with A549 cells [4] was “not damaged”. For the same molecule, the “ratio of apoptotic cells” value in the data set with A549 cells [7] (A549, 0.1 μM) is on record as “unaffected”. Also, the “maximum level of apoptosis” value in the data set on A549 cells [7] (A549, 1 µM) came out at 63%; in the data set with A549 cells [7] (A549, 5 µM) it was 67%.
`COC(=O)Nc1nc2ccc(C(=O)c3cccs3)cc2[nH]1` [Nocodazole, nocodazole]: the IC50 at 48 h in data set [1] came to 8.51 ± 1.73 µM. The IC50 in [2] (A549, 48 h) was 27.4 ± 2.92 µM; in [3] (BGC-823, 48 h), 38.9 ± 3.12 µM; in [5] (HepG2, 48 h), 18.4 ± 3.71 µM.
`COc1cc([C@@H]2c3cc4c(cc3[C@H](O)[C@H]3COC(=O)[C@H]23)OCO4)cc(OC)c1OC` [PTOX, podophyllotoxin]: the IC50 at 48 h in [1] stood at 4.31 ± 1.46 µM. The IC50 in [2] (setting [8]) stood at 20.2 ± 2.75 µM; in data set [3] (setting [9]), 18.3 ± 2.22 µM; in data set [5] (setting [10]), 8.36 ± 1.42 µM.

In general, IC50 refers to the point on the concentration scale where inhibition reaches its midpoint. The term GI50 denotes the concentration giving 50% growth inhibition. By Kd is commonly meant the free concentration of one partner at which half of the binding sites on the other are occupied at equilibrium, for simple one-to-one binding.
